Assay results published in patent US4318847A, “Physiologically active tetrapeptides” (Zaidan Hojin Biseibutsu Kagaku Kenkyu Kai, priority 1979, dated 1982).
Where a SMILES comes first, the peptide text is derived from it. The star is where a group is joined. X1 = CC(C)C[C@@H](N)[C@H](O)C(=O)*

biological target: T1, aminopeptidase A (AP-A) (Homo sapiens, UniProt Q07075); assay: AP-A (E.C. 3,4,11,7) inhibition assay; assay type: biochemical; conditions: L-α-glutamyl-β-naphthylamide substrate, pH 7.0, 37° C., 30 minutes; read-out: IC/50 AP--A: amount of the peptide to inhibit the intact activity of the target enzyme by 50% (converted)
T1 construct: an AP-A solution which was obtained by ammonium sulfate fractionation according to the method of Nagatsu et al; from tissue
Method: That is, 0.25 ml of 2 mM L-α-glutamyl-β-naphthylamide, 0.54 ml of 0.1 M Tris-HCl buffer, pH 7.0, 0.01 ml of 0.1 M calcium chloride and 0.1 ml of a test sample in water were mixed and kept at 37° C. for 3 minutes. The reaction was initiated by addition of 0.1 ml of an AP-A solution which was obtained by ammonium sulfate fractionation according to the method of Nagatsu et al. After incubation at 37° C. for 30 minutes, 1 ml of 1.0 M acetate buffer, pH 4.2, containing 1.0 mg/ml Garnet GBC (orthoaminoazotoluene diazonium salt) and 10% Tween 20 (Atlas Chemical Co., U.S.A.) was added to the reaction solution and then allowed to stand at room temperature for 15 minutes. The absorbance of the test solution (a) was measured at 530 nm. The control solution without the test sample was used as the blank test (absorbance (b)). The inhibition percentage on aminopeptidase A was calculated as [(b-a)/b]x100.

T1 sequence (Q07075 whole entry): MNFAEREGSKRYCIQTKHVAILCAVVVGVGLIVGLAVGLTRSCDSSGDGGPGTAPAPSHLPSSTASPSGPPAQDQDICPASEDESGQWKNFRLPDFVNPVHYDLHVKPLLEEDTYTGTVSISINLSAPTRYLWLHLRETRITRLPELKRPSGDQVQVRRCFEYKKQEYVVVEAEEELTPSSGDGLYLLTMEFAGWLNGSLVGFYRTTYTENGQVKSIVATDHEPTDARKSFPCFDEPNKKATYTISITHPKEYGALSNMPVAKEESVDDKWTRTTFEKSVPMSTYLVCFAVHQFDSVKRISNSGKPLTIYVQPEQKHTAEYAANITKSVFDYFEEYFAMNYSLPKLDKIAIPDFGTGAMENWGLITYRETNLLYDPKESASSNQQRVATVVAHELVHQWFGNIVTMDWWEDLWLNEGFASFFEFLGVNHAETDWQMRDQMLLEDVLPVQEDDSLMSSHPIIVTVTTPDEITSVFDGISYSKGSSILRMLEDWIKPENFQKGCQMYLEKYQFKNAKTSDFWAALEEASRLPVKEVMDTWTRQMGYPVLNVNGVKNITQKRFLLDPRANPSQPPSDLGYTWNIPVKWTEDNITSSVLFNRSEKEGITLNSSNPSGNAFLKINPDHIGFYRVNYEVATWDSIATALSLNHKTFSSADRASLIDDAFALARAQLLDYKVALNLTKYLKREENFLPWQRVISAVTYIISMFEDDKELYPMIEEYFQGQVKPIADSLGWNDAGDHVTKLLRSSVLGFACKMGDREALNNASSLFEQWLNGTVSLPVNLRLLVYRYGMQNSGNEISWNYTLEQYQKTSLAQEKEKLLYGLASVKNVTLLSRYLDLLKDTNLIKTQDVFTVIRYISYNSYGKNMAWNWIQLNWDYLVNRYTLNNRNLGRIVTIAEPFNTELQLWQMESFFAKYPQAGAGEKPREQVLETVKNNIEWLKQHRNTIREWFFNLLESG

**Q.** Which IC50 does the source give for `CC(C)C[C@@H](N)[C@H](O)C(=O)N[C@H](C(=O)N[C@H](C(=O)N[C@@H](CC(=O)O)C(=O)O)[C@@H](C)O)C(C)C` [X--Val--Thr--Asp, (2S,3R)-AHMHA-Val-Thr-Asp] here?
**A.** 2.1 µM

**Q.** `CC(C)C[C@@H](N)[C@H](O)C(=O)N[C@H](C(=O)N[C@H](C(=O)N[C@@H](Cc1ccccc1)C(=O)O)[C@@H](C)O)C(C)C` [X--Val--Thr--Phe, (2S,3R)-AHMHA-Val-Thr-Phe] was tested. Which IC50 did it give?
**A.** 1.18 µM

**Q.** For `CC(C)C[C@@H](N)[C@H](O)C(=O)N[C@H](C(=O)N[C@H](C(=O)N[C@@H](CCCNC(=N)N)C(=O)O)C(C)C)C(C)C` [X--Val--Val-- Arg, (2S,3R)-AHMHA-Val-Val-Arg], which IC50 is on record?
**A.** 26.2 µM

**Q.** With `CC(C)C[C@@H](N)[C@H](O)C(=O)N[C@H](C(=O)N[C@H](C(=O)N[C@@H](CCC(=O)O)C(=O)O)C(C)C)C(C)C` [X--Val--Val--Glu, reference compound] as the compound, how does the IC50 read?
**A.** 4.09 µM

**Q.** `CC(C)C[C@@H](N)[C@H](O)C(=O)N[C@H](C(=O)N[C@H](C(=O)N[C@@H](CCCCN)C(=O)O)C(C)C)C(C)C` [X--Val--Val--Lys, (2S,3R)-AHMHA-Val-Val-Lys] was tested. Which IC50 did it give?
**A.** 43.1 µM

**Q.** `CC(C)C[C@@H](N)[C@H](O)C(=O)N[C@H](C(=O)N[C@H](C(=O)N[C@@H](Cc1ccccc1)C(=O)O)C(C)C)C(C)C` [X--Val--Val--Phe, (2S,3R)-AHMHA-Val-Val-Phe] was tested. Which IC50 did it give?
**A.** 14.2 µM

**Q.** How did the IC50 turn out when `CC(C)C[C@@H](N)[C@H](O)C(=O)N[C@H](C(=O)N[C@H](C(=O)N1CCC[C@H]1C(=O)O)C(C)C)C(C)C` [X--Val--Val--Pro, (2S,3R)-AHMHA-Val-Val-Pro] was run?
**A.** 76.7 µM

**Q.** How did the IC50 turn out when `CC(C)C[C@@H](N)[C@H](O)C(=O)N[C@H](C(=O)N[C@H](C(=O)N[C@H](C(=O)O)[C@@H](C)O)C(C)C)C(C)C` [X--Val--Val--Thr, (2S,3R)-AHMHA-Val-Val-Thr] was run?
**A.** 5.86 µM

**Q.** With `CC(C)C[C@@H](N)[C@H](O)C(=O)N[C@H](C(=O)N[C@H](C(=O)N[C@H](C(=O)O)C(C)C)C(C)C)C(C)C` [X--Val--Val--Val, (2S,3R)-AHMHA-Val-Val-Val] as the compound, how does the IC50 read?
**A.** 9.38 µM

**Q.** For `CC(C)C[C@@H](N)[C@H](O)C(=O)N[C@H](C(=O)N[C@H](C(=O)N[C@H](C(=O)N[C@@H](CC(=O)O)C(=O)O)C(C)C)C(C)C)C(C)C` [X--Val--Val--Val--Asp] (X1-VVVD-OH), which IC50 is on record?
**A.** 31.4 µM

**Q.** `CC(C)C[C@@H](N)[C@H](O)C(=O)N[C@H](C(=O)N[C@H](C(=O)O)C(C)C)C(C)C` [X--Val--Val] was tested. Which IC50 did it give?
**A.** 10 µM

**Q.** How did the IC50 turn out when `CC(C)C[C@@H](N)[C@H](O)C(=O)N[C@H](C(=O)O)C(C)C` [X--Val] was run?
**A.** 864 µM

biological target: T2, leucine aminopeptidase (Leu-AP) (Sus scrofa, UniProt P28839); assay: Leu-AP (E.C. 3,4,11,1) inhibition assay; assay type: biochemical; conditions: Leu-AP (Boehringer-Mannheim), leucyl-β-naphthylamide substrate, pH 7.6, 37° C., 30 minutes; read-out: IC/50 Leu--AP: amount of the peptide to inhibit the intact activity of the target enzyme by 50% (converted)
T2 construct: purchased Boehringer-Mannheim Co
T2 sequence (P28839 1-519): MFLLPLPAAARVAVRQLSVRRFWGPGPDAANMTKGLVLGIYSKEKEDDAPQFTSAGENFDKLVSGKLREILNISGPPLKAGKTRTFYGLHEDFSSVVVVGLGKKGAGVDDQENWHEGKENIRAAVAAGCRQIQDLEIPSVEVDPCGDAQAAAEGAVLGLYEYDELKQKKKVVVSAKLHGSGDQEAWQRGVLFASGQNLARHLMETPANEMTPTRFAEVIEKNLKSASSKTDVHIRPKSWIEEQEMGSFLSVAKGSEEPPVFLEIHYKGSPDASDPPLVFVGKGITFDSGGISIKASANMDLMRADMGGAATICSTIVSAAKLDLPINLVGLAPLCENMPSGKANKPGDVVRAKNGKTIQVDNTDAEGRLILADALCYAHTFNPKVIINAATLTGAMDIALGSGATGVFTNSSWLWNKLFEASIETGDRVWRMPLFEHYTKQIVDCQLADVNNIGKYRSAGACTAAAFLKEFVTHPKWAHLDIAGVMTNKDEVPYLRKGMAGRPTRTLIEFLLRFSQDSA
Method: For enzyme assay, 0.25 ml of 2 mM […], 0.6 ml of 0.1 M Tris-HCl buffer, pH 7.6, and 0.1 ml of an aqueous solution containing a test compound were mixed and allowed to stand at 37° C. for 3 minutes. After a 20-fold dilution of Leu-AP (Boehringer-Mannheim Co.) in 0.1 M Tris-HCl buffer, pH 7.6 (0.05 ml) was added to the solution, the reaction was performed at 37° C. for 30 minutes. The inhibition percentage was measured as detailed in (1).

**Q.** With `CC(C)C[C@@H](N)[C@H](O)C(=O)N[C@H](C(=O)N[C@H](C(=O)N[C@@H](CC(=O)O)C(=O)O)[C@@H](C)O)C(C)C` [X--Val--Thr--Asp, (2S,3R)-AHMHA-Val-Thr-Asp] as the compound, how does the IC50 read?
**A.** 2.1 µM

**Q.** `CC(C)C[C@@H](N)[C@H](O)C(=O)N[C@H](C(=O)N[C@H](C(=O)N[C@@H](Cc1ccccc1)C(=O)O)[C@@H](C)O)C(C)C` [X--Val--Thr--Phe, (2S,3R)-AHMHA-Val-Thr-Phe] was tested. Which IC50 did it give?
**A.** 0.727 µM

**Q.** With `CC(C)C[C@@H](N)[C@H](O)C(=O)N[C@H](C(=O)N[C@H](C(=O)N[C@@H](CCCNC(=N)N)C(=O)O)C(C)C)C(C)C` [X--Val--Val-- Arg, (2S,3R)-AHMHA-Val-Val-Arg] as the compound, how does the IC50 read?
**A.** 38.8 µM

**Q.** With `CC(C)C[C@@H](N)[C@H](O)C(=O)N[C@H](C(=O)N[C@H](C(=O)N[C@@H](CCC(=O)O)C(=O)O)C(C)C)C(C)C` [X--Val--Val--Glu, reference compound] as the compound, how does the IC50 read?
**A.** 4.5 µM

**Q.** `CC(C)C[C@@H](N)[C@H](O)C(=O)N[C@H](C(=O)N[C@H](C(=O)N[C@@H](CCCCN)C(=O)O)C(C)C)C(C)C` [X--Val--Val--Lys, (2S,3R)-AHMHA-Val-Val-Lys] was tested. Which IC50 did it give?
**A.** 65.6 µM

**Q.** For `CC(C)C[C@@H](N)[C@H](O)C(=O)N[C@H](C(=O)N[C@H](C(=O)N[C@@H](Cc1ccccc1)C(=O)O)C(C)C)C(C)C` [X--Val--Val--Phe, (2S,3R)-AHMHA-Val-Val-Phe], which IC50 is on record?
**A.** 4.34 µM

**Q.** How did the IC50 turn out when `CC(C)C[C@@H](N)[C@H](O)C(=O)N[C@H](C(=O)N[C@H](C(=O)N1CCC[C@H]1C(=O)O)C(C)C)C(C)C` [X--Val--Val--Pro, (2S,3R)-AHMHA-Val-Val-Pro] was run?
**A.** 5.91 µM

**Q.** For `CC(C)C[C@@H](N)[C@H](O)C(=O)N[C@H](C(=O)N[C@H](C(=O)N[C@H](C(=O)O)[C@@H](C)O)C(C)C)C(C)C` [X--Val--Val--Thr, (2S,3R)-AHMHA-Val-Val-Thr], which IC50 is on record?
**A.** 7.6 µM

**Q.** `CC(C)C[C@@H](N)[C@H](O)C(=O)N[C@H](C(=O)N[C@H](C(=O)N[C@H](C(=O)O)C(C)C)C(C)C)C(C)C` [X--Val--Val--Val, (2S,3R)-AHMHA-Val-Val-Val] was tested. Which IC50 did it give?
**A.** 3.92 µM

**Q.** `CC(C)C[C@@H](N)[C@H](O)C(=O)N[C@H](C(=O)N[C@H](C(=O)N[C@H](C(=O)N[C@@H](CC(=O)O)C(=O)O)C(C)C)C(C)C)C(C)C` [X--Val--Val--Val--Asp] (X1-VVVD-OH) was tested. Which IC50 did it give?
**A.** 7.32 µM

**Q.** `CC(C)C[C@@H](N)[C@H](O)C(=O)N[C@H](C(=O)N[C@H](C(=O)O)C(C)C)C(C)C` [X--Val--Val] was tested. Which IC50 did it give?
**A.** 2.5 µM

**Q.** Which IC50 does the source give for `CC(C)C[C@@H](N)[C@H](O)C(=O)N[C@H](C(=O)O)C(C)C` [X--Val] here?
**A.** 1.92 µM
